According to patent publication EP3753560A1, “COMPOUNDS FOR THE TREATMENT OF NEUROMUSCULAR DISORDERS” (NMD Pharma A/S, priority 2019, dated 2020):

Columns and labels:
[1] = system: isolated rat soleus muscles; assay: Measurement of force in an in vitro model: recovery of nerve-stimulated contractile force of isolated soleus nerve-muscle preparations after tubocurarine; details: for Point increase (%): percentage of the initial force restored, 50 µM test compound, after 40 mins of compound exposure, in continued presence of 115 nM tubocurarine (90 mins pre-incubation), 30°C
Excerpt: • The terms "C1-3 alkyl" and "C1-5 alkyl" refers to a branched or unbranched alkyl group having from […] carbon atoms respectively, including but not limited to methyl, ethyl, prop-1-yl, prop-2-yl, 2-methyl-prop-1-yl, 2-methyl-prop-2-yl, 2,2-dimethyl-prop-1-yl, but-1-yl, but-2-yl, 3-methyl-but-1-yl, 3-methyl-but-2-yl, pent-1-yl, pent-2-yl and pent-3-yl. • The term "C3-5 cycloalkyl" and "C3-6 cycloalkyl" refers to a group having three to five or three to six carbon atoms respectively including a monocyclic or bicyclic carbocycle, including but not limited to cyclopropyl, cyclobutyl, cyclopentyl and cyclohexyl. • The term "C2-5 alkenyl" refers to a branched or unbranched alkenyl group having from two to five carbon atoms, two of which are connected by a double bond, including but not limited to ethenyl, propenyl, isopropenyl, butenyl, isobutenyl, pentenyl and isopentenyl. • The term "C2-5 alkynyl" refers to a branched or unbranched alkynyl group having from […] carbon atoms, two of which are connected by a triple bond, including but not limited to ethynyl, prop-1-ynyl, prop-2-ynyl, but-1-ynyl, but-2-ynyl, but-3-ynyl, buta-1,3-diynyl, pent-1-ynyl, pent-2-ynyl, pent-3-ynyl, pent-4-ynyl, penta-2,4-diynyl and penta-1,3-diynyl. • The term "5 membered aromatic heterocycle" refers to an aromatic group having five carbon atoms wherein between 1 and 3 carbon atoms in the ring have been replaced with a heteroatom selected from the group comprising nitrogen, sulphur and oxygen. Binding to the heterocycle may be at the position of the heteroatom or via a carbon atom of the heterocycle. […] The term "plasma half-life" is the time that it takes the compound to lose one-half of its pharmacologic activity in the blood plasma. • The term "treatment" refers to the combating of a disease or disorder. "Treatment" or "treating," as used herein, includes any desirable effect on the symptoms or pathology of a disease or condition as described herein, and may include even minimal changes or improvements in one or more measurable markers of the disease or condition being treated. […] In some embodiments, the term "treatment" encompasses amelioration and prevention. • The term "amelioration" refers to moderation in the severity of the symptoms of a disease or condition. Improvement in a patient's condition, or the activity of making an effort to correct, or at least make more acceptable, conditions that are difficult to endure related to patient's conditions is considered "ameliorative" treatment. • The term "prevent" or "preventing" refers to precluding, averting, obviating, forestalling, stopping, or hindering something from happening, especially by advance action. • The term "reversal" or "reversing" refers to the ability of a compound to restore nerve-stimulated force in skeletal muscle exposed either ex vivo or in vivo to a non-depolarizing neuromuscular blocking agent or another pharmaceutical that is able to depress neuromuscular transmission • The term "non-depolarizing blockers" refers to pharmaceutical agents that antagonize the activation of acetylcholine receptors at the post-synaptic muscle fibre membrane by blocking the acetylcholine binding site on the receptor.
The current disclosure relates to compounds that inhibit CIC-1 ion channels and increase muscle excitability and thereby improve muscle function in clinical conditions where muscle activation is failing. Such conditions result in loss of contractile function of skeletal muscle, weakness and excessive fatigue. In this series of experiments the compounds were tested for their ability to restore contractile function of isolated rat muscle when the neuromuscular transmission had been compromised akin to neuromuscular disorders.
Experimentally, soleus muscles from 4-5 wk old rats were isolated with the motor nerve remaining attached. […]

[2] = molecular target: T1, human CIC-1 channels (Homo sapiens, UniProt P35523); assay: Automated whole cell patch-clamp (Qpatch 16) on CHO cells expressing human CIC-1; assay type: cell-based; details: difference in half activation voltage between cell patches treated intracellularly with compound and control (vehicle) patches; positive shift reflects CIC-1 inhibition
T1 construct: host or cells: CHO (Chinese hamster ovary) cells, constitutive expression
Method: Experiments were performed using an automated patch clamp system that allowed high throughput testing of whole cell patches together with both intracellular and extracellular addition of compound.
Automated whole cell patch clamp experiments were performed with the Qpatch 16 system (Sophion Bioscience, Ballerup, Denmark) at room temperature. Data acquisition and analysis were performed in the Qassay software (ver. 5.6, Odense).
To evoke CIC-1 currents in whole cell patches, the membrane potential was initially stepped from a holding potential of -30 mV to +60 mV for 100 ms and then to various test voltages (sweeps) ranging from +120 mV to -140 mV in steps of 20 mV for 300 ms. To obtain tail currents, the membrane potential was stepped to -100 mV after each test voltage for 300 ms and then relaxed to -30 mV for 2 sec between sweeps (Figure 2). I/V relationships for whole cell instant and steady state current amplitudes were obtained by plotting average current densities at the beginning and at the end of the 300 ms step against the membrane potential (Figure 3).
In order to determine the relative overall open probability (P0), the instantaneous tail currents were normalized to the maximal tail current obtained following the most positive voltage step and plotted against the test voltage. […]
To evaluate the compound effect on CIC-1, when applied directly to the intracellular side of the cell membrane, the half activation voltage, V1/2, was determined from whole cell patches with compound added to the intracellular solution and then compared to V1/2 determined from control cell patches with only vehicle added to the intracellular solution. Additionally, the effect of extracellular added compound was evaluated by determine V1/2 and steady state current amplitudes before and after exchanging the extracellular solution to contain compound.
The difference in half activation voltage of CIC-1 channels, ΔV1/2, was determined as the difference between the cell patches treated intracellularly with compound and control cells patches and is reported in Table 4 below. […]

T1 sequence (P35523 whole entry): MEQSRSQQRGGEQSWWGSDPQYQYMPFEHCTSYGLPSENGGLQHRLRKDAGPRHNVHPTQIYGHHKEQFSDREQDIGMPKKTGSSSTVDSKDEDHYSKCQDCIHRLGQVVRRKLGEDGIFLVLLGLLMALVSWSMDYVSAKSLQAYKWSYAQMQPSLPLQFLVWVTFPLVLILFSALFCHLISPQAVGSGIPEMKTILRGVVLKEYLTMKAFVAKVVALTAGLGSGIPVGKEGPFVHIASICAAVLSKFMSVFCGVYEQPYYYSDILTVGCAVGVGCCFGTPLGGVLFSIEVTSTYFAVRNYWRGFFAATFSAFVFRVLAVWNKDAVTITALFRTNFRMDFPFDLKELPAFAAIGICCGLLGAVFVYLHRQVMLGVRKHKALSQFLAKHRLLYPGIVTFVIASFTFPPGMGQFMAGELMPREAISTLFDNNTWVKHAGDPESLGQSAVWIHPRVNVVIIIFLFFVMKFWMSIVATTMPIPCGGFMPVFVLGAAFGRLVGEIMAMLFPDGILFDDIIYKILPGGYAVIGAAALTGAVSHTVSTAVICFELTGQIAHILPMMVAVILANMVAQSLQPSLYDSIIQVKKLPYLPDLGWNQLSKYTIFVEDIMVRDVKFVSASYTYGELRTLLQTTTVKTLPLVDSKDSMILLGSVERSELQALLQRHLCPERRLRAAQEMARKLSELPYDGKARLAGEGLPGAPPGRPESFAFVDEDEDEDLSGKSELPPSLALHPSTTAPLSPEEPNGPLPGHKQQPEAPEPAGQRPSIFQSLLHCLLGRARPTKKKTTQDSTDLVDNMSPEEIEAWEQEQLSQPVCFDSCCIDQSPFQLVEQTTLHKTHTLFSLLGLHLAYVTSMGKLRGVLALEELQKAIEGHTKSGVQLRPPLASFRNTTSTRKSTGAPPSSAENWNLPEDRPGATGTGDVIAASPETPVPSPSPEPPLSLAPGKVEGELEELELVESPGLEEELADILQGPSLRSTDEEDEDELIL

SMILES | Point increase (%) [1] | ΔV1/2 (mV) [2] | average force (AUC) relative to initial force ([1]; Figure 1: 50 µM compound added after 90 min incubation in tubocurarine, 3 muscles)
O=C(O)[C@@H]1CCc2cc(Br)cc(-c3ccon3)c2O1 (single isomer, unassigned) [Compound A-13] | 24% | – | –
O=C(O)[C@@H]1CCCN1c1ccc(Br)cc1F [Compound A-14, (2S)-1-(4-bromo-2-fluorophenyl)pyrrolidine-2-carboxylic acid] | 26% | 8.4 mV | –
O=C(O)Cn1cc(-c2ccon2)c2cc(Cl)ccc21 [Compound A-4, 2-[5-chloro-3-(1,2-oxazol-3-yl)-1H-indol-1-yl]acetic acid] | 12% | – | –
O=C(O)Cn1ccc2cc(Br)ccc21 [Compound A-24, 2-(5-bromo-1H-indol-1-yl)acetic acid] | 10% | 27.9 mV | –
O=C(O)C1CCc2cc(Br)cc(-c3ccon3)c2O1 (stereo not drawn) [Compound A-15, 6-bromo-8-(1,2-oxazol-3-yl)-3,4-dihydro-2H-1-benzopyran-2-carboxylic acid] | – | – | recovered
O=C(O)Cn1cc(-c2ccon2)c2cc(Br)ccc21 [Compound A-12, 2-[5-bromo-3-(1,2-oxazol-3-yl)-1H-indol-1-yl]acetic acid] | 13% | – | –
CC(C(=O)O)n1ccc2cc(Br)ccc21 (stereo not drawn) [Compound A-25, 2-(5-bromo-1H-indol-1-yl)propanoic acid] | – | 5.5 mV | –
